Reference: patent publication US20080312164A1 (priority 2006, published 2008)
Like-named read-outs stand apart in the source and are kept apart here. Marks after values point to notes of the source that are not given here.

What was measured:
[1] = tested on: HCT-116 cells; settings: literature (27, 35); cited from earlier work
[2] = tested on: several cell lines; settings: reported; cited from earlier work
[3] = tested on: Du145 cells; assay: Calcein AM cytotoxicity assay, Du145; assay type: cell-based; settings: Homo sapiens, DU-145; Du145, Calcein AM, 72 h; read-out: IC50
From the text: (§1) Five serial 1:2 dilutions were made with anhydrous DMSO at 100× the final concentration used in the assay.

[4] = tested on: Du145 cells; assay: Cell Titer-Glo cytotoxicity assay, Du145; assay type: cell-based; settings: Homo sapiens, DU-145; Du145, Cell Titer-Glo, 72 h; read-out: IC50
From the text: as §1

[5] = tested on: HCT-116 cells; assay: Calcein AM cytotoxicity assay, HCT-116; assay type: cell-based; settings: Homo sapiens; HCT-116, Calcein AM, 72 h; read-out: IC50
From the text: as §1

[6] = tested on: HCT-116 cells; assay: Cell Titer-Glo cytotoxicity assay, HCT-116; assay type: cell-based; settings: Homo sapiens; HCT-116, Cell Titer-Glo, 72 h; read-out: IC50
From the text: as §1

[7] = tested on: Hep3B cells; assay: Calcein AM cytotoxicity assay, Hep3B; assay type: cell-based; settings: Homo sapiens, Calcein AM, 72 h, read-out: IC50
From the text: as §1

[8] = tested on: Hep3B cells; assay: Cell Titer-Glo cytotoxicity assay, Hep3B; assay type: cell-based; settings: Homo sapiens, Cell Titer-Glo, 72 h, read-out: IC50
From the text: as §1

[9] = tested on: SF-268 cells; assay: Calcein AM cytotoxicity assay, SF-268; assay type: cell-based; settings: Homo sapiens; SF-268, Calcein AM, 72 h; read-out: IC50
From the text: as §1

[10] = tested on: SF-268 cells; assay: Cell Titer-Glo cytotoxicity assay, SF-268; assay type: cell-based; settings: Homo sapiens; SF-268, Cell Titer-Glo, 72 h; read-out: IC50
From the text: as §1

[11] = tested on: SK-OV-3 cells; assay: Calcein AM cytotoxicity assay, SK-OV-3; assay type: cell-based; settings: Homo sapiens; SK-OV-3, Calcein AM, 72 h; read-out: IC50
From the text: as §1

[12] = tested on: SK-OV-3 cells; assay: Cell Titer-Glo cytotoxicity assay, SK-OV-3; assay type: cell-based; settings: Homo sapiens; SK-OV-3, Cell Titer-Glo, 72 h; read-out: IC50
From the text: as §1

[13] = tested on: NCI/ADR RES cells; assay: Calcein AM cytotoxicity assay, NCI/ADR-RES; assay type: cell-based; settings: Homo sapiens, Calcein AM, 72 h, read-out: IC50
From the text: as §1

[14] = tested on: NCI/ADR RES cells; assay: Cell Titer-Glo cytotoxicity assay, NCI/ADR-RES; assay type: cell-based, human; settings: Homo sapiens; NCI/ADR-RES, Cell Titer-Glo, 72 h; read-out: IC50
From the text: as §1

[15] = tested on: NCI-H460 cells; assay: Calcein AM cytotoxicity assay, NCI-H460; assay type: cell-based; settings: Homo sapiens; NCI-H460, Calcein AM, 72 h; read-out: IC50
From the text: as §1

[16] = tested on: NCI-H460 cells; assay: Cell Titer-Glo cytotoxicity assay, NCI-H460; assay type: cell-based, human; settings: Homo sapiens; NCI-H460, Cell Titer-Glo, 72 h; read-out: IC50
From the text: as §1

[17] = tested on: MCF7 cells; assay: Calcein AM cytotoxicity assay, MCF7; assay type: cell-based; settings: Homo sapiens; MCF7, Calcein AM, 72 h; read-out: IC50
From the text: as §1

[18] = tested on: MCF7 cells; assay: Cell Titer-Glo cytotoxicity assay, MCF7; assay type: cell-based, human; settings: Homo sapiens; MCF7, Cell Titer-Glo, 72 h; read-out: IC50
From the text: as §1

[19] = tested on: NmuMG mouse mammary normal epithelial cells; assay: Calcein AM cytotoxicity assay, NmuMG; assay type: cell-based; settings: Epithelial cell, NmuMG, Calcein AM, 72 h, read-out: IC50
From the text: as §1

[20] = tested on: NmuMG mouse mammary normal epithelial cells; assay: Cell Titer-Glo cytotoxicity assay, NmuMG; assay type: cell-based; settings: Mus musculus, Epithelial cell; NmuMG, Cell Titer-Glo, 72 h; read-out: IC50
From the text: as §1

[21] = tested on: HT-29 cells; assay: MTT cytotoxicity assay, HT-29; assay type: cell-based; settings: Homo sapiens; HT-29, MTT, 24 h; read-out: IC50
From the text: The IC50 value for each library member represents at least twelve replicates of dose-response experiments conducted over five concentrations. […] In this assay, live cells were distinguished by the intracellular enzymatic activity that converts the cell-permeable molecule MTT to strongly colored formazan crystals, which are retained within live cells and absorb light at 570 nm.
MTT Cytotoxicity Assay. HT-29 cell lines were maintained in RPMI medium 1640 supplemented with 10% (wt/vol) FBS and 1% penicillin-streptomycin (PS) (100 units/mL and 100 μg/mL). Cells were harvested by trypsinization using 0.25% trypsin and 0.1% EDTA and plated at a density of 2,000-5,000 cells per well of each 96-well microtiter plate. Cells were grown for 24 h at 37° C., with 5% CO2/95% air in a humidified incubator to allow cell attachment to occur before compound addition. Library members were stored at −20° C. under desiccating conditions before the assay. Library member stocks (1000×) were prepared in falcon tubes (BD Biosciences). Five dilutions were made with DMSO at 1000× the final concentration used in the assay. The 1000× stocks (3 μL) were diluted with complete culture medium (3 mL). Each plate contained twelve replicates of cells treated with 0.1% DMSO in complete cell culture medium that served as an individual negative control. Library member stocks (1×, 200 μL) were added to aspirated cells and replicated twelve times on each plate. Cells were incubated with the library members for 24 h before optical density reading. Test plates were removed from the incubator and washed once in sterile PBS to remove serum containing library members. Freshly-made 10×MTT solution in sterile PBS (5 mg/mL) was diluted 1:10 in serum-free culture medium and was sterilized using a 0.2 μm filter. Diluted MTT solution (1×, 50 μL) was added to each well and the plates were incubated in the dark for 2 h. Test plates were centrifuged at 1800×g for 5 min at 4° C. using a Beckman GPR centrifuge. MTT solution was removed by aspiration and 100 μL DMSO was added to each well to lyse cells and solubilize formazan crystals. Test plates were incubated in the dark at room temperature for 10 min. Plates were read for optical density at 570 nm.
IC50 Calculations. For each library member, at least three dose-response experiments were conducted on separate plates. […] To calculate IC50, percent inhibitions were plotted as a function of log[concentration] and then fit to a four-parameter logistic model that allowed for a variable Hill slope by using XLFIT 4.1 (ID Business Solutions, Emeryville, Calif.).

[22] = tested on: human cancer cell lines; assay: Cytotoxicity across the panel of human cancer cell lines (average, high-throughput assays); assay type: cell-based
From the text: as §1

[23] = tested on: NmuMG Cell Line; assay: Cytotoxicity in NmuMG cell line, summary table (assay not stated); assay type: cell-based; settings: Mus musculus, assay not stated (mostly Cell Titer-Glo values; Calcein AM values for 20, 24, 39)
From the text: as §1

[24] = average across eight human cancer cell lines, MTT (HT-29) values excluded
[25] = average across eight human cancer cell lines, MTT (HT-29) values excluded, read-out: Cancerous Average IC50 / Average IC50 in Cancer Cell Lines

## O=C(CCCCCCC(=O)Nc1cccnc1)NO [Compound 7, pyroxamide]
[1]
  IC50: 6.5 ± 0.5 µM
[2]
  IC50: 1 to 20 µM

## CC(C)CN=C=S [Compound 15, 1-isothiocyanato-2-methylpropane]
[3]
  IC50: > 50 µM
[4]
  IC50: > 50 µM
[5]
  IC50: 27.6 µM
[6]
  IC50: > 50 µM
[7]
  IC50: 32.8 µM
[8]
  IC50: > 30 µM
[9]
  IC50: > 50 µM
[10]
  IC50: > 50 µM
[11]
  IC50: > 50 µM
[12]
  IC50: > 50 µM
[13]
  IC50: > 50 µM
[14]
  IC50: > 50 µM
[15]
  IC50: > 50 µM
[16]
  IC50: > 50 µM
[17]
  IC50: > 50 µM
[18]
  IC50: > 50 µM
[19]
  IC50: > 200 µM
[20]
  IC50: > 200 µM
[21]
  IC50: > 50 µM
[22]; Homo sapiens, Calcein AM and CellTiter Glo, all cell lines (FIG. 3 legend), read-out: IC50, all cell lines
  IC50: > 50 µM
[22]; [24]
  Cancerous Average IC50 / Average IC50 in Cancer Cell Lines: >50.00^b μM
[22]; [25]
  IC50: > 50 µM
[23]
  IC50: > 200 µM

## S=C=NC1CC1 [Compound 17, isothiocyanatocyclopropane]
[3]
  IC50: 29.7 µM
[4]
  IC50: > 50 µM
[5]
  IC50: > 50 µM
[6]
  IC50: > 50 µM
[7]
  IC50: > 30 µM
[8]
  IC50: > 30 µM
[9]
  IC50: > 50 µM
[10]
  IC50: > 50 µM
[11]
  IC50: > 30 µM
[12]
  IC50: > 50 µM
[13]
  IC50: > 50 µM
[14]
  IC50: > 50 µM
[15]
  IC50: > 50 µM
[16]
  IC50: > 50 µM
[17]
  IC50: 15.1 µM
[18]
  IC50: 12.6 µM
[19]
  IC50: > 200 µM
[20]
  IC50: > 200 µM
[21]
  IC50: > 50 µM
[22]; [24]
  Cancerous Average IC50 / Average IC50 in Cancer Cell Lines: >50.00^c μM
[22]; [25]
  IC50: > 50 µM
[23]
  IC50: > 200 µM

## S=C=Nc1ccccc1 [Compound 19, 1-isothiocyanatobenzene]
[3]
  IC50: > 50 µM
[4]
  IC50: > 50 µM
[5]
  IC50: > 20 µM
[6]
  IC50: > 20 µM
[7]
  IC50: > 50 µM
[8]
  IC50: > 20 µM
[9]
  IC50: 2.32 µM
[10]
  IC50: > 50 µM
[11]
  IC50: > 50 µM
[12]
  IC50: > 50 µM
[13]
  IC50: > 20 µM
[14]
  IC50: > 20 µM
[15]
  IC50: > 50 µM
[16]
  IC50: > 20 µM
[17]
  IC50: > 50 µM
[18]
  IC50: > 50 µM
[19]
  IC50: > 200 µM
[20]
  IC50: > 200 µM
[21]
  IC50: > 50 µM
[22]; [25]
  IC50: >50.00 µM
[23]
  IC50: > 200 µM

## S=C=Nc1ccc(Br)cc1 [Compound 20, 1-bromo-4-isothiocyanatobenzene]
[3]
  IC50: > 50 µM
[4]
  IC50: 41.4 µM
[5]
  IC50: > 50 µM
[6]
  IC50: 21.6 µM
[7]
  IC50: > 50 µM
[8]
  IC50: > 50 µM
[9]
  IC50: > 50 µM
[10]
  IC50: 24.9 µM
[11]
  IC50: > 50 µM
[12]
  IC50: 19.6 µM
[13]
  IC50: > 50 µM
[14]
  IC50: 23.1 µM
[15]
  IC50: > 50 µM
[16]
  IC50: 10.4 µM
[17]
  IC50: 26.7 µM
[18]
  IC50: 17.1 µM
[19]
  IC50: 183 µM
[20]
  IC50: 21.4 µM
[21]
  IC50: > 50 µM
[22]; [24]
  Cancerous Average IC50 / Average IC50 in Cancer Cell Lines: >50.00^e μM
[22]; [25]
  IC50: > 50 µM
[23]
  IC50: 183 µM

## S=C=NCc1ccco1 [Compound 24, 2-(isothiocyanatomethyl)furan]
[3]
  IC50: > 50 µM
[4]
  IC50: > 50 µM
[5]
  IC50: > 50 µM
[6]
  IC50: > 50 µM
[7]
  IC50: > 30 µM
[8]
  IC50: > 30 µM
[9]
  IC50: > 50 µM
[10]
  IC50: > 50 µM
[11]
  IC50: > 30 µM
[12]
  IC50: > 50 µM
[13]
  IC50: 21.6 µM
[14]
  IC50: > 50 µM
[15]
  IC50: > 50 µM
[16]
  IC50: > 50 µM
[17]
  IC50: > 50 µM
[18]
  IC50: > 50 µM
[19]
  IC50: 151 µM
[20]
  IC50: > 200 µM
[21]
  IC50: > 50 µM
[22]; [25]
  IC50: > 50 µM
[23]
  IC50: 151 µM

## S=C=NCc1ccccc1-c1ccccc1 [Compound 33, 1-(isothiocyanatomethyl)-2-phenylbenzene]
[3]
  IC50: 3.16 µM
[4]
  IC50: 5.25 µM
[5]
  IC50: 5.56 µM
[6]
  IC50: 4.64 µM
[7]
  IC50: 10.6 µM
[8]
  IC50: 4.24 µM
[9]
  IC50: 4.79 µM
[10]
  IC50: 6.39 µM
[11]
  IC50: 5.93 µM
[12]
  IC50: 5.01 µM
[13]
  IC50: 4.12 µM
[14]
  IC50: 4.11 µM
[15]
  IC50: 6.44 µM
[16]
  IC50: 8.95 µM
[17]
  IC50: 1.6 µM
[18]
  IC50: 3.63 µM
[19]
  IC50: < 12.5 µM
[20]
  IC50: 80.1 µM
[21]
  IC50: 39.9 µM
[22]; IC50 in NmuMG versus average IC50 in cancer cell lines
  selectivity for cancer cells over NmuMG cells: 36.3 fold
[22]; average IC50 compared with single-ring 23 and 38
  further fold increase in potency from multiple phenyl rings: ~2 fold
[22]; [25]
  IC50: 4.96 µM
[23]
  IC50: 180 µM

## Cc1c(N=C=S)c(=O)n(-c2ccccc2)n1C [Compound 37, 4-isothiocyanato-2,3-dimethyl-1-phenyl-1,2-dihydropyrazol-5-one]
[3]
  IC50: > 50 µM
[4]
  IC50: > 50 µM
[5]
  IC50: > 50 µM
[6]
  IC50: > 50 µM
[7]
  IC50: > 50 µM
[8]
  IC50: > 50 µM
[9]
  IC50: > 50 µM
[10]
  IC50: > 50 µM
[11]
  IC50: > 50 µM
[12]
  IC50: > 50 µM
[13]
  IC50: > 50 µM
[14]
  IC50: > 50 µM
[15]
  IC50: > 50 µM
[16]
  IC50: > 50 µM
[17]
  IC50: > 50 µM
[18]
  IC50: > 50 µM
[19]
  IC50: > 200 µM
[20]
  IC50: > 200 µM
[21]
  IC50: > 50 µM
[22]; [25]
  IC50: > 50 µM
[23]
  IC50: > 200 µM

## S=C=NCCC1=CCCCC1 [Compound 39, 1-(2-isothiocyanatoethyl)cyclohex-1-ene]
[3]
  IC50: 25.5 µM
[4]
  IC50: 18.6 µM
[5]
  IC50: 19 µM
[6]
  IC50: 16.4 µM
[7]
  IC50: 28.5 µM
[8]
  IC50: 16.1 µM
[9]
  IC50: 3.89 µM
[10]
  IC50: 13.6 µM
[11]
  IC50: 19.5 µM
[12]
  IC50: 24.1 µM
[13]
  IC50: 12.2 µM
[14]
  IC50: 26.9 µM
[15]
  IC50: 28.6 µM
[16]
  IC50: 36.4 µM
[17]
  IC50: 27.5 µM
[18]
  IC50: 19.8 µM
[19]
  IC50: 13 µM
[20]
  IC50: > 200 µM
[21]
  IC50: 45.3 µM
[22]; [25]
  IC50: 18.3 µM
[23]
  IC50: 13 µM
